Measured values taken from ChEMBL document CHEMBL1151339, “Antitumor agents from bohemic acid complex, III. The isolation of marcellomycin, musettamycin, rudolphomycin, mimimycin, collinemycin, alcindoromycin, and bohemamine” (J Nat Prod, 1980).
In brackets after ≈: the same amount, converted by molar mass.

How the values were obtained:
[1] = tested on: B16; test: Antitumor activity against mouse B16 cells xenografted in BDF1 mouse at 0.8 mg/kg relative to control; assay type: functional
[2] = tested on: Escherichia coli; test: Antibacterial activity against Escherichia coli A20341-1 by 2-fold tube dilution method; assay type: functional
[3] = tested on: B16; test: Antitumor activity against mouse B16 cells xenografted in BDF1 mouse assessed as change in tumor average weight at 0.4 mg/kg; assay type: functional
[4] = tested on: L1210; test: Antitumor activity against mouse L1210 cells xenografted in BDF1 mouse assessed as median survival time at 0.8 mg/kg, ip; assay type: functional; details: route intraperitoneal
[5] = tested on: Staphylococcus aureus; test: Antibacterial activity against Staphylococcus aureus A-9497 by 2-fold tube dilution method; assay type: functional
[6] = tested on: Mus musculus; test: Toxicity in BDF1 mouse xenografted with mouse B16 cells assessed as survival at 0.4 mg/kg after 5 days; assay type: organism-based; parameters: dose 0.4 mg/kg
[7] = tested on: L1210; test: Antitumor activity against mouse L1210 cells xenografted in BDF1 mouse assessed as change in tumor average weight at 0.8 mg/kg, ip; assay type: functional; details: route intraperitoneal
[8] = tested on: L1210; test: Antitumor activity against mouse L1210 cells xenografted in BDF1 mouse at 0.8 mg/kg, ip relative to control; assay type: functional; details: route intraperitoneal
[9] = tested on: Pichia kudriavzevii; test: Antifungal activity against Candida krusei A15052 by 2-fold tube dilution method; assay type: functional
[10] = tested on: Mus musculus; test: Toxicity in BDF1 mouse xenografted with mouse L1210 cells assessed as survival at 6.4 mg/kg, ip after 5 days; assay type: organism-based; parameters: dose 6.4 mg/kg, route intraperitoneal; details: in vivo, 120 h
[11] = tested on: B16; test: Antitumor activity against mouse B16 cells xenografted in BDF1 mouse at 0.025 mg/kg relative to control; assay type: functional
[12] = tested on: Mus musculus; test: Toxicity in BDF1 mouse xenografted with mouse B16 cells assessed as survival at 0.05 mg/kg after 5 days; assay type: organism-based; parameters: dose 0.05 mg/kg
[13] = tested on: L1210; test: Antitumor activity against mouse L1210 cells xenografted in BDF1 mouse assessed as change in tumor average weight at 0.4 mg/kg, ip; assay type: functional; details: route intraperitoneal
[14] = tested on: Mus musculus; test: Toxicity in BDF1 mouse xenografted with mouse B16 cells assessed as survival at 0.2 mg/kg after 5 days; assay type: organism-based; parameters: dose 0.2 mg/kg
[15] = tested on: Candida tropicalis; test: Antifungal activity against Candida tropicalis A15051 by 2-fold tube dilution method; assay type: functional

In the case of CC[C@@]1(O)C[C@H](O[C@H]2C[C@H](N(C)C)[C@H](O[C@H]3C[C@H](O)[C@H](O[C@@H]4O[C@@H](C)C(=O)C=C4N)[C@@H](C)O3)[C@@H](C)O2)c2c(cc3c(c2O)C(=O)c2c(O)ccc(O)c2C3=O)[C@H]1C(=O)OC [RUDOLPHOMYCIN], the T/C [1] is reported as 145%, the MIC [2] is reported as > 125 µg/mL and the Activity [3] is reported as -0.8 g. For the same compound, the Activity [4] was 9 days, the MIC [5] was 1 µg/mL (≈ 1.19 µM) and the AC50 [6] was “Non-toxic”. For the same compound, the Activity [7] was -1.6 g, the T/C [8] was 120% and the MIC [9] was > 16 µg/mL. The Activity [10] was “Toxic”, the T/C [11] was 113% and the AC50 [12] was “Non-toxic”. For the same compound, the Activity [13] was 0.9 g, the AC50 [14] was “Non-toxic” and the MIC [15] was > 16 µg/mL.
